These results are taken from US20100184815A1 (priority 2008, published 2010).

Read-outs that look alike come from different tables or passages of the source.

For data set [1], the target named is T1, Gal-4 hPPARβ/δ (Homo sapiens, UniProt Q03181).
T1 construct: Plasmids pGal4-hPPARα, pGal4-hPPARγ, pGal4-hPPARδ and pG5-TK-pGL3 were constructed as previously described by Staels, Bart, et al., Nature 1998 Jun; 25
T1 sequence (Q03181 171-441 limits assumed): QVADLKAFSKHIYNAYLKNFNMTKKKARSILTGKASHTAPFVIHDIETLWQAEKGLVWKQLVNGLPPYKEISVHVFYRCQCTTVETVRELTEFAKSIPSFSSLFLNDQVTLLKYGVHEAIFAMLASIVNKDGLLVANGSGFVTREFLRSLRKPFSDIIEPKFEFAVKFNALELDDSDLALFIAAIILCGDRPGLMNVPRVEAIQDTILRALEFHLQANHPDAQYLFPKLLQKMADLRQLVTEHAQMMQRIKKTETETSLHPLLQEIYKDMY
Briefly: Gal4-hPPARδ transient transfection reporter assay in Cos cells. It is filed as cell-based. The conditions noted are these: luciferase reporter, 24 hours with compound, scale 1-5, read-out: Gal-4 hPPAR β/δ EC50 (scaled number). The essentials: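 Cos cells transiently co-transfected with Gal4-hPPAR expression plasmid, pG5-TK-pGL3 luciferase reporter and β-galactosidase control, then treated 24 h with increasing compound concentrations in DMEM containing 0.2% FCS. Luciferase normalised to β-galactosidase; EC50 from curve fit, at least three experiments.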

The target in data set [2] is T2, Full Length hPPARα (Homo sapiens, UniProt Q07869).
T2 construct: Full Length; expressed in transfected cells; host or cells: Cos cells
T2 sequence (Q07869 1-468): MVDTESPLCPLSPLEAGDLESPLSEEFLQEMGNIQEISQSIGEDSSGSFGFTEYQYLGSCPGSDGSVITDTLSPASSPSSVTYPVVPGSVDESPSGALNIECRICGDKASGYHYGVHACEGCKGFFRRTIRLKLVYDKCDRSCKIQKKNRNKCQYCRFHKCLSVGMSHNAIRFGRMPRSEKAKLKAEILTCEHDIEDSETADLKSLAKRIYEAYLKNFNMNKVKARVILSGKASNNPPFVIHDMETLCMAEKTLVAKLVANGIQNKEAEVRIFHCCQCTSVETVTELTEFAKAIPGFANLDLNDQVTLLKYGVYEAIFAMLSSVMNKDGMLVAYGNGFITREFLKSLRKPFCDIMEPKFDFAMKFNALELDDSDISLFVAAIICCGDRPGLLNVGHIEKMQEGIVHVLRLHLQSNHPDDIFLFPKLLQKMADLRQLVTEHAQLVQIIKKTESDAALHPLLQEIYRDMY
Briefly: Full length hPPARα transfection assay. It is filed as cell-based. As to conditions: full length receptor; read-out: Full Length hPPAR α EC50 (scaled number). An outline of the steps: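 Transiently transfected Cos cells (PEI, 3 h) with receptor expression and luciferase reporter plasmids plus β-galactosidase normalisation control; after replating, cells exposed 24 h to increasing compound concentrations in DMEM/0.2% FCS. Luciferase normalised to β-galactosidase; EC50 estimated from curves, reported as 1–5 score scale; ≥3 experiments.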

Data set [3] has as its system pig liver esterase. Briefly: Metabolism studies using pig liver esterase. It is filed as in vitro ADME. As to conditions: 37° C.
Where [4] appears, read: pig liver esterase in human plasma protein solution, read-out: Pig Liver Esterase (t1/2 min.) (+) Plasma.
Setting [5] is: pig liver esterase in phosphate buffer pH 7.4, no plasma, read-out: Pig Liver Esterase (t1/2 min.) (−) Plasma.
The mark [6] stands for this setting: pig liver esterase in human plasma protein solution.

On to `CCCCCCn1c(COC(=O)c2ccc(SC(C)(C)C(=O)O)cc2)nn(Cc2ccc(C(C)(C)C)cc2)c1=O` [Compound 187, 2-(4-(((1-(4-tert-butylbenzyl)-4-hexyl-5-oxo-4,5-dihydro-1H-1,2,4-triazol-3-yl)methoxy)carbonyl)phenylthio)-2-methylpropanoic acid], for which the values for the EC50 in data set [1] and in data set [2] were over 1000 nM and under 1 nM, respectively. Also, the half-life at 4.9 µM in data set [3] (setting [4]) was 64 min; in data set [3] (setting [5]), 26 min.

On to `CCCCCCn1c(COC(=O)c2ccc(SC(C)(C)C(=O)O)cc2)nn(Cc2ccc(C)cc2)c1=O` [Compound 160, 2-(4-(((4-hexyl-1-(4-methylbenzyl)-5-oxo-4,5-dihydro-1H-1,2,4-triazol-3-yl)methoxy)carbonyl)phenylthio)-2-methylpropanoic acid], for which the EC50 in data set [1] was over 1000 nM; in data set [2], under 1 nM. Besides, the half-life at 4.9 µM in data set [3] (setting [4]) was over 120 min; in data set [3] (setting [5]), under 5 min.

In the case of `CCCCCCCCn1c(COC(=O)c2ccc(OC(C)(C)C(=O)O)c(OC)c2)nn(Cc2ccc(C)cc2)c1=O` [Compound 186, 2-(2-methoxy-4-(((1-(4-methylbenzyl)-4-octyl-5-oxo-4,5-dihydro-1H-1,2,4-triazol-3-yl)methoxy)carbonyl)phenoxy)-2-methylpropanoic acid], the EC50 in data set [1] was over 1000 nM; in data set [2] it was 51 to 200 nM. Moreover, the “Pig Liver Esterase (t1/2 min.) (+) Plasma” value in data set [3] (setting [6]) is on record as “Stable”. Also, in data set [3] (setting [5]), the half-life at 4.9 µM came out at 45 min.

As to `CCCn1c(COC(=O)c2ccc(SC(C)(C)C(=O)O)cc2)nn(Cc2ccc(C(C)(C)C)cc2)c1=O` [Compound 159, 2-(4-(((1-(4-tert-butylbenzyl)-5-oxo-4-propyl-4,5-dihydro-1H-1,2,4-triazol-3-yl)methoxy)carbonyl)phenylthio)-2-methylpropanoic acid], the EC50 is over 1000 nM in data set [1] and 1 to 50 nM in data set [2]. The half-life at 4.9 µM stood at 97 min in data set [3] (setting [4]) and 3 min in data set [3] (setting [5]).

Take `CCCCCCn1c(COC(=O)c2ccc(OC(C)(C)C(=O)O)cc2)nn(Cc2ccc(C)cc2)c1=O` [Compound 151, 2-(4-(((4-hexyl-1-(4-methylbenzyl)-5-oxo-4,5-dihydro-1H-1,2,4-triazol-3-yl)methoxy)carbonyl)phenoxy)-2-methylpropanoic acid]: the EC50 was over 1000 nM in data set [1] and under 1 nM in data set [2]. For the same molecule, the “Pig Liver Esterase (t1/2 min.) (+) Plasma” value in data set [3] (setting [6]) is recorded as “Stable”. Moreover, the half-life at 4.9 µM in data set [3] (setting [5]) came out at 31 min.

Take `Cc1ccc(Cn2cc(COC(=O)c3ccc(SC(C)(C)C(=O)O)cc3)nn2)cc1` [Compound 60, 2-methyl-2-(4-(((1-(4-methylbenzyl)-1H-1,2,3-triazol-4-yl)methoxy)carbonyl)phenylthio)propanoic acid]: the EC50 in data set [1] was over 1000 nM; in data set [2] it was 1 to 50 nM. In addition, the values for the half-life at 4.9 µM in data set [3] (setting [4]) and in data set [3] (setting [5]) were 89 min and 31 min, respectively.

Regarding `CCCCCCCCn1c(COC(=O)c2ccc(SC(C)(C)C(=O)O)cc2)nn(Cc2ccc(C)cc2)c1=O` [Compound 161, 2-methyl-2-(4-(((1-(4-methylbenzyl)-4-octyl-5-oxo-4,5-dihydro-1H-1,2,4-triazol-3-yl)methoxy)carbonyl)phenylthio)propanoic acid], the EC50 was 51 to 200 nM in data set [1] and under 1 nM in data set [2]. Moreover, the half-life at 4.9 µM in data set [3] (setting [4]) is over 120 min; in data set [3] (setting [5]) it was under 5 min.

Consider `CC(C)(Sc1ccc(C(=O)OCc2cn(Cc3ccc(C(F)(F)F)cc3)nn2)cc1)C(=O)O` [Compound 67, 2-methyl-2-(4-(((1-(4-(trifluoromethyl)benzyl)-1H-1,2,3-triazol-4-yl)methoxy)carbonyl)phenylthio)propanoic acid], for which the EC50 was over 1000 nM in data set [1] and under 1 nM in data set [2]. In addition, the half-life at 4.9 µM in data set [3] (setting [4]) was determined as 121 min; in data set [3] (setting [5]), 21 min.
